{
  "source": "patent US20230264191A1",
  "about": "“SYSTEMS AND METHODS FOR FABRICATING PHYSIOLOGICALLY RELEVANT IN VITRO VESSELS” (The Texas A&M University System, priority 2022, published 2023)",
  "tested_on": "lymphatic endothelial cells (LEC monoculture / LEC-LMC coculture in lymphangion-chip)",
  "experiment": "Lymphatic endothelial barrier function (permeability) of the lymphangion-chip after exposure to TNF-α",
  "format": "cell-based",
  "details": "LMCs cocultured with LECs (graph 400, FIG. 22)",
  "data": [
    {"substance": "Tumor Necrosis Factor Alpha (TNF-α)", "values": [
      {"measurement": "lymphatic endothelial barrier function", "value": "relatively conserved"}
    ]}
  ]
}
